Measured values as given in the NIST ThermoML archive (doi:10.1021/je8009336).

Key:
[1] = Liquid; for mass density: Vibrating tube method; for speed of sound: Vibrating Tube Densimeter
[2] = refractive index (Na D-line) (dimensionless); conditions: 101.33 kPa, Liquid, Standard Abbe refractometry
[3] = xn = mol fraction of the nth substance listed; conditions: 313.15 K, 101 kPa, Liquid; for speed of sound: Vibrating Tube Densimeter; for mass density: Vibrating tube method
[4] = refractive index (Na D-line) (dimensionless); xn = mol fraction of the nth substance listed; conditions: 313.15 K, 101 kPa, Liquid, Standard Abbe refractometry

c1ccccc1 [benzene]
[1]
Conditions	mass density, 298.15 K [kg/m3]	mass density, 313.15 K [kg/m3]	speed of sound, 313.15 K [m/s]
101 kPa	–	857.5	1230.5
101.33 kPa	873.5	–	–

[2]
Conditions	refractive index
298.15 K	1.49775
313.15 K	1.48777

C1CCCCC1 [cyclohexane]
[1]
Conditions	mass density, 298.15 K [kg/m3]	mass density, 313.15 K [kg/m3]	speed of sound, 313.15 K [m/s]
101 kPa	–	759.6	1181.7
101.33 kPa	773.8	–	–

[2]
Conditions	refractive index
298.15 K	1.42353
313.15 K	1.41513

C1CCCC1 [cyclopentane]
[1]
Conditions	mass density, 298.15 K [kg/m3]	mass density, 313.15 K [kg/m3]	speed of sound, 313.15 K [m/s]
101 kPa	–	725	1130
101.33 kPa	740	–	–

[2]
Conditions	refractive index
298.15 K	1.40342
313.15 K	1.39456

CCc1ccccc1 [ethylbenzene]
[1]
Conditions	mass density, 298.15 K [kg/m3]	mass density, 313.15 K [kg/m3]	speed of sound, 313.15 K [m/s]
101 kPa	–	849.3	1257.3
101.33 kPa	862.5	–	–

[2]
Conditions	refractive index
298.15 K	1.49304
313.15 K	1.48538

CC1CCCCC1 [methylcyclohexane]
[1]
Conditions	mass density, 298.15 K [kg/m3]	mass density, 313.15 K [kg/m3]	speed of sound, 313.15 K [m/s]
101 kPa	–	752	1149.6
101.33 kPa	764.9	–	–

[2]
Conditions	refractive index
298.15 K	1.42053
313.15 K	1.41272

CC1CCCCC1 [methylcyclohexane] + c1ccccc1
Conditions	mass density, [3] [kg/m3]	refractive index, [4]	speed of sound, [3] [m/s]
x1 = 0.0486	849.3	1.48201	1220.3
x1 = 0.0982	841.3	1.47621	1211.2
x1 = 0.1995	826.7	1.46566	1195.3
x1 = 0.2999	813.5	1.45619	1182.5
x1 = 0.4038	801.3	1.44745	1172
x1 = 0.4998	791.3	1.44043	1164.6
x1 = 0.612	780.7	1.43297	1158.1
x1 = 0.7053	772.6	1.42729	1154.2
x1 = 0.7994	765.3	1.42214	1151.5
x1 = 0.8991	758.4	1.41728	1149.9
x1 = 0.953	754.8	1.4148	1149.5
x1 = 1	752	1.41272	1149.6

Cc1ccccc1 [toluene]
[1]
Conditions	mass density, 298.15 K [kg/m3]	mass density, 313.15 K [kg/m3]	speed of sound, 313.15 K [m/s]
101 kPa	–	848.2	1240.9
101.33 kPa	862.1	–	–

[2]
Conditions	refractive index
298.15 K	1.49399
313.15 K	1.48509

Cc1ccccc1 [toluene] + C1CCCC1
x2 = 0
Conditions	mass density [kg/m3]	refractive index	speed of sound [m/s]
[3]	848.2	–	1240.9
[4]	–	1.48509	–

Cc1ccccc1 [toluene] + C1CCCCC1
x2 = 0
Conditions	mass density [kg/m3]	refractive index	speed of sound [m/s]
[3]	848.2	–	1240.9
[4]	–	1.48509	–

Cc1ccccc1 [toluene] + CC1CCCCC1
x2 = 0
Conditions	mass density [kg/m3]	refractive index	speed of sound [m/s]
[3]	848.2	–	1240.9
[4]	–	1.48509	–
